Results taken from US7989602B2, “Synthetic molecules having immune activity” (The Malaghan Institute of Medical Research, priority 2003, dated 2011).
Where two headings read alike, the source gives them in different places.

Assays:
[1] = system: C57BL-6 mouse spleen cells; assay: Cytokine production in vitro by mouse spleen cells (ELISA); type: cell-based
airway eosinophilia = assay: OVA-induced airway eosinophilia mouse model; type: in vivo, C57B1/6J mice
[2] = 5 μg/ml, dissolved in Tween/PBS, PIM-2 control also in 0.02% Tween/PBS, 24 hours
[3] = 5 μg/ml in PBS, 24 hours, 10^6 cells per well, ELISA

| Molecule | induced production of IFNγ ([1]; in words, summary of Table 4) | induced production of IL-12 ([1]; in words, summary of Table 4) | IFNγ compared with PIM-2 control [1, 3] | IL-12 compared with PIM-2 control [1, 3] | also measured |
| --- | --- | --- | --- | --- | --- |
| CCCCCCCCCCCCCCCCCC(=O)OC[C@H](COP(=O)(O)OCCO[C@H]1O[C@H](CO)[C@@H](O)[C@H](O)[C@@H]1O)OC(=O)CCCCCCCCCCCCCCCCC [Compound 7, Triethylammonium 1-O-(1,2-di-O-stearoyl-sn-glycero-3-phosphoryl)-2-O-(α-D-mannopyranosyl)-1,2-ethanediol] | notable levels | notable levels | – | – | IFNγ compared with PIM-2 control [1, 2]: 1.26; IL-12 compared with PIM-2 control [1, 2]: 1.03 |
| CCCCCCCCCCCCCCCCCC(=O)OCC(CO[C@H]1O[C@H](CO)[C@@H](O)[C@H](O)[C@@H]1O)OC(=O)CCCCCCCCCCCCCCCCC (mixture of isomers) [Compound 17, 1,2-di-O-stearoyl-3-O-α-D-mannopyranosylglycerol] | – | – | – | – | biological activity (airway eosinophilia; results not shown, stated in Example 2): not biologically active |
| CCCCCCCCCCCCCCCCCCOP(=O)([O-])OC(COC1OC(CO)C(O)C(O)C1O)COC1OC(CO)C(O)C(O)C1O.[Na+] [Compound 47, Sodium 2-O-(Octadecylphosphoryl)-1,3-bis-O-(α-D-mannopyranosyl)glycerol] | – | induced production | 0.03 | 0.56 | IL-4 compared with PIM-2 control [1, 3]: 1.94; IL-10 compared with PIM-2 control [1, 3]: 0.53; induced production of IL-4 ([1]; in words, summary of Table 4): greater levels; induced production of IL-10 ([1]; in words, summary of Table 4): induced production |
| CCCCCCCCCCCCCCCCCC(=O)OCC(COP(=O)(O)OC(COC1OC(CO)C(O)C(O)C1O)COC1OC(CO)C(O)C(O)C1O)OC(=O)CCCCCCCCCCCCCCCCC [Compound 15, Triethylammonium 2-O-(1,2-O-distearoyl-sn-glycero-3-phoshoryl)-1,3-bis-O-(α-D-mannopyranosyl)glycerol] | levels comparable to PIM-22,6 | – | 0.98 | – | Mean Eosinophil Count (×10^6), least square means by test molecule type (airway eosinophilia; BAL 4 days after intranasal OVA challenge, intranasal treatment in 50 μl PBS, mean over dose rates 0, 0.02, 0.2, 2.0): 0.144 ×10^6 |
| CCCCCCCCCCCCCCCCCC(=O)OC[C@H](COP(=O)([O-])OCCCOC1OC(CO)C(O)C(O)C1O)OC(=O)CCCCCCCCCCCCCCCCC.[Na+] (stereo partly shown) [Compound 31] | notable levels | notable levels | 0.75 | 1.80 | – |
| CCCCCCCCCCCCCCCCCC(=O)OC[C@H](COP(=O)([O-])OC(COC1OC(CO)C(O)C(O)C1O)COC1OC(CO)C(O)C(O)C1O)OC(=O)CCCCCCCCCCCCCCCCC.[Na+] (stereo partly drawn) [Compound 44, Sodium(1,2-di-O-stearoyl-sn-glycero-3-phoshoryl)-2-[1,3-bis-O-(α-D-galactopyranoside)]glycerol] | – | a small amount | – | 0.14 | induced production of IL-12 ([1]; in words, summary of Table 4, listed as compound 44): only a low level |
| CCCCCCCCCCCCCCCCCC(=O)OC[C@H](COP(=O)([O-])OCCO[C@H]1O[C@H](CO[C@H]2O[C@H](CO)[C@@H](O)[C@H](O)[C@@H]2O)[C@@H](O)[C@H](O)[C@@H]1O)OC(=O)CCCCCCCCCCCCCCCCC.[Na+] [Compound 28, Sodium 1-O-(1,2-di-O-stearoyl-sn-glycero-3-phosphoryl)-2-O-[6-O-(α-D-mannopyranosyl)-α-D-mannopyranosyl]-1,2-ethanediol] | – | – | – | – | IFNγ compared with PIM-2 control [1]: 0.62; IL-10 compared with PIM-2 control [1]: 0.36; IL-12 compared with PIM-2 control [1]: 1.15; induced production of IFNγ [1]: notable levels; induced production of IL-12 [1]: notable levels |
| L-α-Phosphatidylinositol [reference compound] | – | – | 0.39 | – | – |
| CCCCCCCCCCCCCCCCCC(=O)OC[C@H](COP(=O)([O-])O[C@@H]1CCCC[C@H]1OC1OC(CO)C(O)C(O)C1O)OC(=O)CCCCCCCCCCCCCCCCC.[Na+] (stereo partly drawn) [Compound 36, 1-O-(Sodium 1,2-di-O-stearoyl-sn-glycero-3-phosphoryl)-2-O-(-α-D-mannopyranosyl)-cyclohexane-1,2-diol] | – | levels greater than PIM-22,6 | 0.05 | 1.59 | IL-4 compared with PIM-2 control [1, 3]: 4.29; IL-10 compared with PIM-2 control [1, 3]: 0.60; induced production of IL-4 ([1]; in words, summary of Table 4): levels greater than PIM-22,6 |
